Earlier results as cited in patent US8506359B2, “Aqueous dispersion for chemical mechanical polishing and chemical mechanical polishing method” (JSR Corporation, priority 2008, dated 2013).

conditions: 25° C.; second carboxyl group for two carboxyl groups, third carboxyl group for three or more

SMILES	pKa
O=C(O)C1CCCCCCC1C(=O)O (stereo not drawn) [1,2-Cyclooctanedicarboxylic acid (cis), 1,2-Cyclooctanedicarboxylic acid]	7.34
O=C(O)C1CCCC1C(=O)O (stereo not drawn) [1,2-Cyclopentanedicarboxylic acid (cis), 1,2-Cyclopentanedicarboxylic acid]	6.57
O=C(O)C1CCCC1C(=O)O (stereo not drawn) [1,2-Cyclopentanedicarboxylic acid (trans)]	5.99

Further lines, results first:

pKa	SMILES
7.60	O=C(O)C1CCCCCC1C(=O)O (stereo not drawn) [1,2-Cycloheptanedicarboxylic acid (cis), 1,2-Cycloheptanedicarboxylic acid]
6.18	O=C(O)C1CCCCCC1C(=O)O (stereo not drawn) [1,2-Cycloheptanedicarboxylic acid (trans)]
6.24	O=C(O)C1CCCCCCC1C(=O)O (stereo not drawn) [1,2-Cyclooctanedicarboxylic acid (trans), 1,2-Cyclooctanedicarboxylic acid]
